# ChEMBL document CHEMBL1201862, “PubChem BioAssay data set” (2004)
# “And” between values parts separate entries of the source, which are not always exact repeats. Identical values can stand only once.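 Growth conditions: 96-well plates. Treatment: test compound, 48 hours, 5 concentrations. Analysis: linear interpolation between bracketing concentrations; unreached endpoints set to highest concentration. At the GI50, growth is halved.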 The source made the active and inactive calls. Cut-off read from the data, not from the text of the source: active = GI50 up to about 1.1 µM and inactive = higher. *1 amine or outer side, *2 acyl side, *3 side chain or, on linkers, in order; H or OH if unused. Where a SMILES comes first, the peptide text is derived from it. Bridges are numbered along the chain shown (N, C = ends). Roman numbers before positions name the chains, in order. [ ]: non-standard residue; d: D form. Actinocin(1to9) = Cc1c2oc3c(C)ccc(C(=O)[*:2])c3nc-2c(C(=O)[*:1])c(N)c1=O; NMeY = CN[CH](Cc1ccc(O)cc1)C(=O)O; Sar = CNCC(=O)O
# Tests used:
# Experiment in all cases: growth of human tumour cells (NCI), 48 h
# Malme-3M = tested on: Malme-3M
# ACHN = tested on: ACHN
# OVCAR-4 = tested on: OVCAR-4
# NCI-H23 = tested on: NCI-H23
# OVCAR-8 = tested on: OVCAR-8
# A498 = tested on: A498
# MDA-N = tested on: MDA-N
# SK-MEL-5 = tested on: SK-MEL-5
# KM12 = tested on: KM12
# RPMI-8226 = tested on: RPMI-8226
# DU-145 = tested on: DU-145
# UACC-62 = tested on: UACC-62
# SW-620 = tested on: SW-620
# HCC 2998 = tested on: HCC 2998
# A549 = tested on: A549
# SNB-19 = tested on: SNB-19
# SF-295 = tested on: SF-295
# UACC-257 = tested on: UACC-257
# SN12C = tested on: SN12C
# BT-549 = tested on: BT-549
# HOP-62 = tested on: HOP-62
# T47D = tested on: T47D
# PC-3 = tested on: PC-3
# NCI-H226 = tested on: NCI-H226
# MDA-MB-435 = tested on: MDA-MB-435
# OVCAR-3 = tested on: OVCAR-3
# SNB-75 = tested on: SNB-75
# SK-MEL-28 = tested on: SK-MEL-28
# SF-539 = tested on: SF-539
# Hs-578T = tested on: Hs-578T
# SF-268 = tested on: SF-268
# MCF7 = tested on: MCF7
# IGROV-1 = tested on: IGROV-1
# SK-MEL-2 = tested on: SK-MEL-2
# 786-0 = tested on: 786-0
# U-251 = tested on: U-251
# NCI-H460 = tested on: NCI-H460
# OVCAR-5 = tested on: OVCAR-5
# CCRF-CEM = tested on: CCRF-CEM
# LOX IMVI = tested on: LOX IMVI
# HT-29 = tested on: HT-29
# M14 = tested on: M14
# MDA-MB-231 = tested on: MDA-MB-231
# MOLT-4 = tested on: MOLT-4
# UO-31 = tested on: UO-31
# COLO 205 = tested on: COLO 205
# SK-OV-3 = tested on: SK-OV-3
# NCI-H522 = tested on: NCI-H522
# NCI/ADR-RES = tested on: NCI/ADR-RES
# SR = tested on: SR
# HCT-15 = tested on: HCT-15
# HCT-116 = tested on: HCT-116
# RXF 393 = tested on: RXF 393
# EKVX = tested on: EKVX
# K562 = tested on: K562
# TK-10 = tested on: TK-10
# HL-60 = tested on: HL-60
structure (smiles),measurement,setting,value
"COc1ccc(CC2C(=O)OC(C)C(NC(=O)c3c4nc5c(C(=O)NC6C(=O)NC(C(C)C)C(=O)N7CCCC7C(=O)N(C)CC(=O)N(C)C(Cc7ccc(OC)cc7)C(=O)OC6C)ccc(C)c5oc-4c(C)c(=O)c3N)C(=O)NC(C(C)C)C(=O)N3CCCC3C(=O)N(C)CC(=O)N2C)cc1 (stereo not given) (I: TVP[Sar][NMeY](Me) / II: TVP[Sar][NMeY](Me); ester I:1-I:C, II:1-II:C; linker I:N-II:N via Actinocin(1to9); configuration not given here)",GI50,Malme-3M,< 10 nM (active) and 10.6 nM (active)
same,GI50,ACHN,0.0102 µM (active)
same,GI50,OVCAR-4,< 0.01 µM (active)
same,GI50,NCI-H23,0.0104 µM (active)
same,GI50,OVCAR-8,0.00859 µM (active)
same,GI50,A498,< 10 nM (active) and 14.9 nM (active)
same,GI50,MDA-N,0.00811 µM (active)
same,GI50,SK-MEL-5,0.0119 µM (active)
same,GI50,KM12,0.00516 µM (active)
same,GI50,RPMI-8226,0.0121 µM (active)
same,GI50,DU-145,0.0121 µM (active)
same,GI50,UACC-62,0.0107 µM (active)
same,GI50,SW-620,< 10 nM (active) and 13.6 nM (active)
same,GI50,HCC 2998,< 10 nM (active) and 8.04 nM (active)
same,GI50,A549,0.00527 µM (active)
same,GI50,SNB-19,0.00637 µM (active)
same,GI50,SF-295,0.0199 µM (active)
same,GI50,UACC-257,0.0155 µM (active)
same,GI50,SN12C,0.0053 µM (active)
same,GI50,BT-549,0.0208 µM (active)
same,GI50,HOP-62,0.00953 µM (active)
same,GI50,T47D,0.0094 µM (active)
same,GI50,PC-3,< 10 nM (active) and 10 nM (active)
same,GI50,NCI-H226,< 10 nM (active) and 14.9 nM (active)
same,GI50,MDA-MB-435,0.00923 µM (active)
same,GI50,OVCAR-3,< 10 nM (active) and 9.44 nM (active)
same,GI50,SNB-75,0.00764 µM (active)
same,GI50,SK-MEL-28,0.00964 µM (active)
same,GI50,SF-539,< 10 nM (active) and 7.08 nM (active)
O=C(CCCN1CCC(Nc2ccc(F)cc2)(c2nnnn2C2CCCCC2)CC1)c1ccc(F)cc1,GI50,Malme-3M,29.2 µM (inactive)
same,GI50,ACHN,10.6 µM (inactive)
same,GI50,Hs-578T,18.5 µM (inactive)
same,GI50,SF-268,12.8 µM (inactive)
same,GI50,MCF7,17.8 µM (inactive)
same,GI50,IGROV-1,3.69 µM (inactive)
same,GI50,SK-MEL-2,16.3 µM (inactive)
same,GI50,786-0,17.8 µM (inactive)
same,GI50,U-251,15.3 µM (inactive)
same,GI50,OVCAR-4,12.9 µM (inactive)
same,GI50,NCI-H460,11.6 µM (inactive)
same,GI50,NCI-H23,14.5 µM (inactive)
same,GI50,OVCAR-5,15.7 µM (inactive)
same,GI50,OVCAR-8,23.6 µM (inactive)
same,GI50,A498,3.79 µM (inactive)
same,GI50,CCRF-CEM,7.1 µM (inactive)
same,GI50,MDA-N,15.5 µM (inactive)
same,GI50,SK-MEL-5,20.7 µM (inactive)
same,GI50,KM12,3.52 µM (inactive)
same,GI50,LOX IMVI,19.4 µM (inactive)
same,GI50,RPMI-8226,5.42 µM (inactive)
same,GI50,HT-29,8.57 µM (inactive)
same,GI50,M14,16.7 µM (inactive)
same,GI50,MDA-MB-231,16.6 µM (inactive)
same,GI50,DU-145,14.5 µM (inactive)
same,GI50,MOLT-4,5.27 µM (inactive)
same,GI50,UACC-62,3.3 µM (inactive)
same,GI50,UO-31,14.1 µM (inactive)
same,GI50,SW-620,22.5 µM (inactive)
same,GI50,HCC 2998,16.3 µM (inactive)
same,GI50,COLO 205,14.3 µM (inactive)
same,GI50,A549,13.1 µM (inactive)
same,GI50,SK-OV-3,3.39 µM (inactive)
same,GI50,SNB-19,15.6 µM (inactive)
same,GI50,SF-295,18.3 µM (inactive)
same,GI50,UACC-257,21.3 µM (inactive)
same,GI50,SN12C,31.5 µM (inactive)
same,GI50,NCI-H522,16.3 µM (inactive)
same,GI50,BT-549,16.5 µM (inactive)
same,GI50,NCI/ADR-RES,16.3 µM (inactive)
same,GI50,SR,11.7 µM (inactive)
same,GI50,HOP-62,16.9 µM (inactive)
same,GI50,PC-3,13.1 µM (inactive)
same,GI50,HCT-15,15.2 µM
same,GI50,NCI-H226,17.2 µM (inactive)
same,GI50,HCT-116,13.2 µM (inactive)
same,GI50,RXF 393,12.6 µM (inactive)
same,GI50,EKVX,15.9 µM (inactive)
same,GI50,MDA-MB-435,16.7 µM (inactive)
same,GI50,OVCAR-3,14.8 µM (inactive)
same,GI50,K562,3.98 µM (inactive)
same,GI50,TK-10,15.3 µM (inactive)
same,GI50,SNB-75,11.2 µM (inactive)
same,GI50,SK-MEL-28,16.2 µM (inactive)
same,GI50,HL-60,6.52 µM (inactive)
same,GI50,SF-539,12.6 µM (inactive)
